Tests used:
[1] = in vitro; type: in vitro ADME, human; conditions: human, plasma, 10 µM; for Plasma Stability 240 min hum [% remain.]: 4 h
[2] = in vitro; type: in vitro ADME, mouse; conditions: both, CD-1, mouse, plasma, 10 µM; for Plasma Stability 240 min mouse [% remain.]: 4 h
[3] = Metabolic stability assay, human microsomes; type: in vitro ADME; conditions: human, microsomes; for Metabolic Stability T½ [min] hum / Metabolic Stability 60 min hum [% remain.]: both, 10 µM; for Metabolic Stability 60 min hum [% remain.]: 1 h; for half-life at 10 µM: both sexes
Description: (§1) 4. Plasma and Metabolic Stability Assays
(§2) The assays were conducted according to literature precedents (F. P. Guengerich, Analysis and Characterization of Enzymes; in: Principles and Methods of Toxicology; A. W. Hayes (Ed.) Raven Press: New York, 1989, 777-813; R. Singh et al., In vitro metabolism of a potent HIV-protease inhibitor (141W94) using rat, monkey and human liver S9, Rapid Commun. Mass Spectrom. 1996, 10, 1019-1026).
(§3) Metabolic Stability Assay
(§4) Microsomes from a human 50 donor mixed gender pool and 1:1 mixtures of microsomes from CD-1 mouse single-gender pools are purchased from Celsis (Belgium). The enzymatic reaction is performed in a buffer containing an NADPH regeneration system and microsomes with the following end concentrations: 100 mM potassium phosphate buffer (all from Sigma), 1 mg/mL glucose-6-phosphate, 1 mg/mL β-nicotinamide adenine dinucleotide phosphate (NADP), 0.65 mg/mL magnesium chloride, 0.8 units/mL of glucose-6-phosphate dehydrogenase (prediluted with 5 mM citrate buffer), 10 μM compound and 1 mg/ml microsomal protein. Compounds are incubated at 37° C. in duplicates and samples are taken after 0, 20 and 60 minutes. After acetonitrile precipitation (2 volumes) and HPLC/MS/MS analysis metabolic turnover is expressed in % of the initial 0 minutes value and half life T½ (min) is calculated. Verapamil for human and propranolol for mouse are used as reference and are assayed with every experimental set.

[4] = Metabolic stability assay, CD-1 mouse microsomes; type: in vitro ADME; conditions: CD-1, mouse, microsomes; for Metabolic Stability T½ [min] mouse / Metabolic Stability 60 min mouse [% remain.]: both, 10 µM; for Metabolic Stability 60 min mouse [% remain.]: 1 h; for half-life at 10 µM: both sexes
Description: as §1, §2, §3, §4
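Throughout, for Plasma Stability 240 min mouse [% remain.]: sodium citrate stabilized mouse plasma, parent compound quantified by HPLC/MS/MS relative to its peak area at time zero, run in triplicate.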
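Throughout, for Plasma Stability T½ [min] mouse: sodium citrate stabilized mouse plasma, parent compound quantified by HPLC/MS/MS relative to its peak area at time zero, run in triplicate.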

Row | Compound | Plasma Stability T½ [min] hum [1] [min] | Plasma Stability 240 min hum [% remain.] [1] [% remain.] | Plasma Stability T½ [min] mouse [2] [min] | Plasma Stability 240 min mouse [% remain.] [2] [% remain.] | Metabolic Stability T½ [min] hum [3] [min] | Metabolic Stability 60 min hum [% remain.] [3] [% remain.] | Metabolic Stability T½ [min] mouse [4] [min] | Metabolic Stability 60 min mouse [% remain.] [4] [% remain.] | half-life at 10 µM [3] [h] | half-life at 10 µM [4] [h]
1 | CN(C)CCNC(=O)[C@H]1CCC(=O)N(C)CC(=O)N2CCN(C(=O)Cc3ccc4ccccc4c3)C[C@@H]2COc2ccc(F)cc2C(=O)N1C [Ex. 138, (12R,20aR)-N-[2-(dimethylamino)ethyl]-16-fluoro-8,13-dimethyl-2-[2-(2-naphthyl)acetyl]-6,9,14-trioxo-1,2,3,4,7,8,9,10,11,12,13,14,20,20a-tetradecahydro-6H-pyrazino[2,1-c][1,4,7,12]benzoxatriazacyclopentadecine-12-carboxamide] | > 240 | 89 | > 240 | 78 | > 60 | 62 | > 60 | 99 | – | –
2 | CC(=O)N[C@H]1CN(C)C(=O)c2cccc(c2)OC[C@@H]2C[C@H](NC(=O)CN(C)C)CN2C(=O)CN(C)C1=O [Ex. 208, N-[(4S,6S,13S)-13-(acetylamino)-11,15-dimethyl-9,12,16-trioxo-2-oxa-8,11,15-triazatricyclo[15.3.1.0^4,8]henicosa-1(21),17,19-trien-6-yl]-2-(dimethylamino)acetamide] | > 240 | 98 | > 240 | 90 | > 60 | 84 | > 60 | 100 | – | –
3 | CN(C)CC(=O)N[C@@H]1C[C@H]2COc3cccc(c3)C(=O)N(C)C[C@H](NC(=O)Cc3ccc4ccccc4c3)C(=O)N(C)CC(=O)N2C1 [Ex. 230, 2-(dimethylamino)-N-[(4S,6R,13S)-11,15-dimethyl-13-{[2-(2-naphthyl)acetyl]amino}-9,12,16-trioxo-2-oxa-8,11,15-triazatricyclo[15.3.1.0^4,8]henicosa-1(21),17,19-trien-6-yl]acetamide] | > 240 | 100 | > 240 | 95 | > 60 | 61 | > 60 | 90 | – | –
4 | CN1CC(=O)N2C[C@H](NC(=O)CCc3ccncc3)C[C@H]2COc2ccc(cc2)C(=O)N(C)[C@H](C(=O)NCc2ccc3ccccc3c2)CCC1=O [Ex. 260, (4S,6R,15S)-11,16-dimethyl-N-(2-naphthylmethyl)-9,12,17-trioxo-6-{[3-(4-pyridinyl)propanoyl]amino}-2-oxa-8,11,16-triazatricyclo[16.2.2.0^4,8]docosa-1(20),18,21-triene-15-carboxamide] | > 240 | 100 | > 240 | 100 | – | 19 | > 60 | 69 | 0.617 | –
5 | CCN(CC)[C@@H]1C[C@H]2COc3ccc(cc3)C(=O)N(C)[C@H](C(=O)NCc3ccc4ccccc4c3)CCC(=O)N(C)CC(=O)N2C1 [Ex. 262, (4S,6R,15S)-6-(diethylamino)-11,16-dimethyl-N-(2-naphthylmethyl)-9,12,17-trioxo-2-oxa-8,11,16-triazatricyclo[16.2.2.0^4,8]docosa-1(20),18,21-triene-15-carboxamide] | > 240 | 100 | > 240 | 93 | – | 0 | – | 4 | 0.35 | 0.383
6 | CN1CC(=O)N2C[C@H](NC(=O)CN3CCCC3)C[C@H]2COc2ccc(cc2)C(=O)N(C)[C@H](C(=O)NCc2ccncc2)CCC1=O [Ex. 266, (4S,6R,15S)-11,16-dimethyl-9,12,17-trioxo-N-(4-pyridinylmethyl)-6-{[2-(1-pyrrolidinyl)acetyl]amino}-2-oxa-8,11,16-triazatricyclo[16.2.2.0^4,8]docosa-1(20),18,21-triene-15-carboxamide] | > 240 | 92 | > 240 | 74 | > 60 | 100 | > 60 | 98 | – | –
7 | CN1CC(=O)N2C[C@H](NC(=O)CCC(=O)O)C[C@H]2COc2ccc(cc2)C(=O)N(C)[C@H](C(=O)NCc2ccncc2)CCC1=O [Ex. 267, 4-{[(4S,6R,15S)-11,16-dimethyl-9,12,17-trioxo-15-{[(4-pyridinylmethyl)amino]carbonyl}-2-oxa-8,11,16-triazatricyclo[16.2.2.0^4,8]docosa-1(20),18,21-trien-6-yl]amino}-4-oxobutanoic acid] | > 240 | 75 | > 240 | 79 | > 60 | 99 | > 60 | 100 | – | –
8 | CC(C)CN1C[C@H]2C[C@H]1COc1ccc(F)cc1C(=O)N(C)CCC[C@H](NC(=O)Cc1ccccc1)C(=O)N2 [Ex. 407, N-[(1S,15S,18R)-7-fluoro-20-isobutyl-11-methyl-10,16-dioxo-3-oxa-11,17,20-triazatricyclo[16.2.1.0^4,9]henicosa-4,6,8-trien-15-yl]-2-phenylacetamide] | > 240 | 80 | > 240 | 98 | – | 47 | > 60 | 84 | 0.85 | –
9 | CN1CCC[C@H](NC(=O)CC(C)(C)C)C(=O)N2C[C@@H](N)C[C@H]2COc2cccc(c2)C1=O [Ex. 533, N-[(4S,6S,10S)-6-amino-14-methyl-9,15-dioxo-2-oxa-8,14-diazatricyclo[14.3.1.0^4,8]icosa-1(20),16,18-trien-10-yl]-3,3-dimethylbutanamide] | > 240 | 95 | > 240 | 100 | > 60 | 59 | > 60 | 93 | – | –
10 | CN1CCC[C@H](N)C(=O)N2C[C@@H](OCc3ccc(-c4cncnc4)cc3)C[C@H]2COc2cccc(c2)C1=O [Ex. 577, (4S,6S,10S)-10-amino-14-methyl-6-{[4-(5-pyrimidinyl)benzyl]oxy}-2-oxa-8,14-diazatricyclo[14.3.1.0^4,8]icosa-1(20),16,18-triene-9,15-dione] | > 240 | 87 | > 240 | 101 | – | 41 | – | 25 | 0.783 | 0.45
11 | CN1CCC[C@H](N)C(=O)N2C[C@@H](OCc3ccc(-c4cccnc4)cc3)C[C@H]2COc2cccc(c2)C1=O [Ex. 578, (4S,6S,10S)-10-amino-14-methyl-6-{[4-(3-pyridinyl)benzyl]oxy}-2-oxa-8,14-diazatricyclo[14.3.1.0^4,8]icosa-1(20),16,18-triene-9,15-dione] | > 240 | 100 | > 240 | 86 | – | 46 | > 60 | 55 | 0.867 | –
12 | CC(=O)N1CCN([C@H]2CCCN(C)C(=O)c3cccc(c3)OC[C@@H]3C[C@H](O)CN3C2=O)CC1 [Ex. 582, (4S,6S,10S)-10-(4-acetylpiperazino)-6-hydroxy-14-methyl-2-oxa-8,14-diazatricyclo[14.3.1.0^4,8]icosa-1(20),16,18-triene-9,15-dione] | > 240 | 100 | > 240 | 96 | > 60 | 100 | > 60 | 98 | – | –

From patent publication US9512139B2, “Conformationally constrained, fully synthetic macrocyclic compounds” (POLYPHOR AG, priority 2009, dated 2016)
